This test concerns rat model of hyperuricemia induced by adenine (100 mg/kg)+ethambutol (250 mg/kg). The experiment in a line: Rat model of hyperuricemia induced by adenine + ethambutol; serum UA, CREA, UREA. The class given is in vivo. The procedure: 40 rats were randomly divided into 5 groups with 8 rats in each group. The groups were as follows: Blank Group (Vehicle, ig); Model Group (Vehicle, ig); Positive control group (Allopurinol, 10 mg/kg, ig); Compound 1 group (Sevelamer carbonate, 250 mg/kg, ig); Compound 2 group (PAA polymer, 50 mg/kg, ig). Except for Blank group, rats in other groups were modeled according to the chronic modeling method. The modeling method was as follows: rats were given Adenine (100 mg/kg)+Ethambutol (250 mg/kg) by gavage, once a day, for 21 days. Animals in blank group and model group were given equal volume of normal saline by gavage. Animals in positive control group were given 10 mg/kg Alloalcohol by gavage, once in the first week, once in the second week, once a day for 3 days before sampling in the third week. Animals in each group were given intragastric administration once a day for 14 consecutive days from the 8th day of modeling. Blood samples were taken at Day 21 after modeling, and serum samples were separated and stored at −80[…] for biochemical detection.
After 21 days of modeling (14 days of drug treatment), blood samples were taken and serum separation was performed to detect three renal functions (UA, CREA and UREA) (See Table 1 and FIGS. 1a to 1c). Compound 1 is Sevelamer carbonate and Compound 2 is a polyallylamine-based copolymer having a general structure of formula (4) as described herein.

The mark [1] stands for this setting: after 21 days of modeling, adenine + ethambutol model.
The mark [2] stands for this setting: serum, after 21 days of modeling (14 days of administration), ig, Allopurinol 10 mg/kg, Compound 1 250 mg/kg, Compound 2 50 mg/kg.

This note sets out measurements from US12478638B2, “Polymers, compositions and methods for treating hyperuricemia” (WATERSTONE PHARMACEUTICALS (WUHAN) CO., LTD., priority 2021, dated 2025).

Take `Oc1ncnc2[nH]ncc12` [Allopurinol]: under setting [1], the “level of CREA compared with the model group (in words)” value is listed as “significantly reduced”, the “level of UA compared with the model group (in words)” value is recorded as “significantly reduced” and the “level of UREA compared with the model group (in words)” value is “significantly reduced”. Under setting [2], the CREA is reported as 54.73 ± 4.75 ^ μmol/L, the UA stood at 12.88 ± 6.01 µmol/L and the UREA is given as 5.82 ± 1.10 mmol/L.
